Counter-ions that a name gives are not always drawn.
Row | Compound | melting point
1 | COc1cc2ncnc(Nc3cc(Br)c(C)c(Br)c3)c2cc1OC [P-212, 4-(3′,5′-Dibromo-4′-methylphenyl)-amino-6,7-dimethoxyquinazoline] | 275 to 279 °C
2 | COc1cc2ncnc(Nc3ccc(O)c(I)c3)c2cc1OC (as salt: salt) [P-299, 4-(4′-Hydroxy-3′-iodophenyl)-amino-6,7-dimethoxyquinazoline] | 248 to 250 °C
3 | COc1cc2ncnc(Nc3ccc(O)c(F)c3)c2cc1OC (as salt: salt) [P-369, 4-(4′Hydroxyl-3′-fluorophenyl)-amino-6,7-dimethoxyquinazoline] | 268 to 270 °C
4 | COc1cc2ncnc(Nc3cc(-c4ccccc4)c(O)c(-c4ccccc4)c3)c2cc1OC [P-277, 4-(4′-Hydroxy-3′,5′-diphenylphenyl)-amino-6,7-dime-hoxyquinazoline] | 255 to 257 °C
5 | COc1cc2ncnc(Nc3ccc(C)c(Br)c3)c2cc1OC (as salt: salt) [P-111, 4-(3′-Bromo-4′-methylphenyl)-amino-6,7-dimethoxyquinazoline] | 225 to 228 °C
6 | COc1cc2ncnc(Nc3ccccc3CO)c2cc1OC [P-191, 4-(6′-Hydroxymethylphenyl)-amino-6,7-dimethosyquinazoline] | 215 to 218 °C
7 | COc1cc2ncnc(Nc3cc(Cl)c(O)c(Cl)c3)c2cc1OC [P-189, 4-(4′-Hydroxyl-3′,5′-dichlorophenyl)amino-6,7-dimethoxyquinazoline] | 293 to 295 °C
8 | COc1cc2ncnc(Nc3ccc(O)cc3O)c2cc1OC [P-192, 4-(2′,4′-Dihydroxyphenyl)-amino-6,7-dimethoxyquinazoline] | 240 °C (dec.)
9 | COc1cc2ncnc(Nc3c(Br)cccc3Br)c2cc1OC [P-262, 4-(2′,6′-Dibromophenyl)-amino-6,7-dimethoxyquinazoline] | 243 to 246 °C
10 | COc1cc2ncnc(Nc3ccc(Cl)c4ccccc34)c2cc1OC (as salt: salt) [P-415, 4-(4′-Chloronaphthy-1′)-amino-6,7-dimethoxyquinazoline] | 245 to 248 °C
11 | COc1cc2ncnc(Nc3ncccc3O)c2cc1OC [P-150, 4-[(3′-Hydroxylpyridine)-2′]-amino-6,7-dimethoxyquinazoline] | 185 to 187 °C
12 | COc1cc2ncnc(Nc3c(F)c(F)c(Br)c(F)c3F)c2cc1OC (as salt: salt) [P-144, 4-(2′,3′,5′,6′-Tetrafluoro-4′-bromolphenyl)-amino-6,7-dime-thoxyquinazoline] | 180 to 182 °C
13 | COc1cc2ncnc(Nc3cc(I)c(O)c(I)c3)c2cc1OC (as salt: salt) [P-294, 4-(4′-Hydroxy-3,5-diiodophenyl)-amino-6,7-dimethoxy-quinazoline] | 259 to 260 °C
14 | COc1cc2ncnc(Nc3cc(Cl)ccc3O)c2cc1OC (as salt: salt) [P-93, 4-(3′-Chlooro-6′-hydroxylphenyl)amino-6,7-dimethoxyquinazoline] | 295 °C (dec.)
15 | COc1cc2ncnc(Nc3ccccc3C(F)(F)F)c2cc1OC [P-228, 4-(2′-Trifluoromethylphenyl)-amino-6,7-dimethoxyquinazoline] | 242 to 245 °C
16 | COc1cc2ncnc(Nc3ccc(O)cc3Cl)c2cc1OC (as salt: salt) [P-278, 4-(4′-Hydroxyl-2′-chlorophenyl)-amino-6,7-dimethoxy-quinazoline] | 245 to 247 °C
17 | COc1cc2ncnc(Nc3cnc(O)nc3O)c2cc1OC [P-215, 4-(2′,4′-Dihydroxyl-1′,3′-diazine-5′)-amino-6,7-dime-thoxyquinazoline] | > 300 °C
18 | COc1cc2ncnc(Nc3cc(C(F)(F)F)cc(C(F)(F)F)c3)c2cc1OC (as salt: salt) [P-366, 4-(3′,5′-Ditrifluoromethylphenyl)-amno-6,7-dimethoxyquinazoline] | 270 to 272 °C
19 | COc1cc2ncnc(Nc3cc(F)c(O)c(F)c3)c2cc1OC (as salt: salt) [P-408, 4-(4′-Hydroxyl-3′,5′-difluorophenyl)-amino-6,7-dimethoxy-quinazoline] | 228 to 230 °C

— US20020111360A1, “Quinazoline formulations and therapeutic use thereof” (PARKER HUGHES INSTITUTE, priority 1999, published 2002)
